Data from patent EP0747346B1, “N-acyl-2 aryl cyclopropylmethylamine derivatives as melatonergics” (BRISTOL-MYERS SQUIBB COMPANY, priority 1995, dated 1996).
Where two headings read alike, the source gives them in different places. One block for each compound: values may come before it.

Target: T1, human ML1A (Homo sapiens, UniProt P48039)
T1 construct: expressed in transfected cells; host or cells: COS-1 cells, transient transfection (DEAE-dextran) with pcDNAI; membrane homogenates
Test: Measurement of melatonergic binding: displacement of 2-[125I]-iodomelatonin from membranes of COS-1 cells transfected with human ML1A cDNA
Protocol: Example 145 (Measurement of Melatonergic Binding)
The melatonergic binding of the compounds of Formula I was determined by a modification of the method of Reppert, S. M. et al. (Neuron, Volume 13, pages 1177-1185, 1994). […] The reagents, membranes, and other parameters used in the assay are described below: Reagents: • (a) 50 mM Tris buffer containing 12.5 mM MgCl2, and 2 mM EDTA (pH 7.4 at 37 °C). • (b) Wash buffer: 20 mM Tris base containing 2 mM MgCl2 (pH 7.4 at room temperature). • (c) 6-Chloromelatonin (10^-5 M final concentration). • (d) 2-[^125I]-Iodomelatonin (100 pM final concentration). (Source: NEN) Membrane preparation: The cDNA (human ML1A) in pcDNAI was introduced into COS-1 cells by the DEAE-dextran method. Three days later, after media removal, the plates were washed with buffered saline; the cells removed using Hank's balanced salt solution and pelleted. The supernant was discarded and the pellets frozen. For membrane homogenates, the pellets were thawed and resuspended in TME buffer, Tris base, MgCl2, EDTA (pH 7.4 at 37 °C), and supplemented with aprotinin, leupeptin, and phenylmethylsulfonyl fluoride. The cells were homogenized and centrifuged; the resulting pellet resuspended in TME and frozen. At assay, the small aliquot was thawed on ice and resuspended in TME buffer. Incubation: 37 °C for 1 hour. Reaction is terminated by filtration.

[1] = Binding affinity (IC50) at the human melatonin receptor, Table 5: displacement of 2-[125I]-Iodomelatonin, Formula I compounds with R1 and R = H, G = methylene
[2] = Table 4 (continued): displacement of 2-[125I]-Iodomelatonin, Formula I compounds with X = OCH3, R = H, G = methylene
[3] = displacement of 2-[125I]-Iodomelatonin (100 pM), COS-1 membranes, human ML1A, 37 °C for 1 hour
[4] = Binding affinity (IC50) at the human melatonin receptor, Table 6: displacement of 2-[125I]-Iodomelatonin, Formula I compounds with X = OCH3, Y and Z = H, R1 = H

T1 sequence (P48039 whole entry): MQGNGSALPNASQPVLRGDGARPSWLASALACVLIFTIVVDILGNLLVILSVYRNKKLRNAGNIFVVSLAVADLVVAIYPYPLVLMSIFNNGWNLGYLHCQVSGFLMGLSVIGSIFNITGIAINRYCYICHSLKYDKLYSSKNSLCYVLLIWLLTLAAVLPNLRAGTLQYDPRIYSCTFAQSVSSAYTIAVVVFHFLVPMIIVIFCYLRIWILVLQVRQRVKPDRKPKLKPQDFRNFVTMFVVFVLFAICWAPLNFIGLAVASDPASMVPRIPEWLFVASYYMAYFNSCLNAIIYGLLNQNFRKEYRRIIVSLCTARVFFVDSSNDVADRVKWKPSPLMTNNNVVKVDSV

Compound: COc1cccc([C@@H]2C[C@H]2CNC(=O)CC(F)(F)F)c1 (single isomer, unassigned) [Example 42, (-)-(trans)-3,3,3-Trifluor-N-[[2-(3-methoxyphenyl)cycloprop-1-yl]methyl] propanamide]
- IC50 [2]: < 5 nM

Compound: CCCC(=O)NC[C@@H]1C[C@H]1c1cc(OC)ccc1I [Example 32, (-)-(trans)-N-[[2-(2-Iodo-5-methoxyphenyl)cyclopropyl]methyl] butanamide]
- IC50 [2]: < 5 nM

Compound: CCCC(=O)NC[C@@H]1C[C@H]1c1cccc(OC)c1 [Example 3b, (-)-(trans)-N-[[2-(3-Methoxyphenyl)cyclopropyl]methyl] butanamide]
- IC50 [3]: < 5 nM

Compound: CCCC(=O)NC[C@@H]1C[C@H]1c1cc(OC)c(Br)cc1Br (relative stereo) [Example 5, (trans)-N-[[2-(2,4-Dibromo-5-methoxyphenyl)cyclopropyl]methyl] butanamide]
- IC50 [3]: < 5 nM

Compound: CCCC(=O)NC[C@@H]1C[C@H]1c1cccc(OC(F)(F)F)c1 (single isomer, unassigned) [Example 64]
- IC50 [1]: 5 to 40 nM

Compound: CCCC(=O)NC(C)[C@@H]1C[C@H]1c1cccc(OC)c1 (single isomer, unassigned) [Example 136]
- IC50 [4]: 5 to 40 nM

Compound: CCCC(=O)NC[C@@H]1C[C@H]1c1ccc(I)c(OC(F)(F)F)c1 (single isomer, unassigned) [Example 69]
- IC50 [1]: 5 to 40 nM

Compound: CNC(=O)NC[C@@H]1C[C@H]1c1cccc(OC)c1 [Example 39, (-)-(trans)-N-[[2-(3-Methoxyphenyl)cycloprop-1-yl]methyl]-N'-methyl urea]
- IC50 [2]: < 5 nM

Compound: COc1cccc([C@@H]2C[C@H]2CNC(=O)C(C)C)c1 [Example 22, (-)-(trans)-N-[[2-(3-Methoxyphenyl)cyclopropyl]methyl]-2-methylpropanamide]
- IC50 [3]: 5 to 40 nM

Compound: CCCC(=O)NC[C@@H]1C[C@H]1c1cc(F)ccc1Br (single isomer, unassigned) [Example 66]
- IC50 [1]: 5 to 40 nM

Compound: CCCC(=O)NC[C@H]1[C@H](c2cccc(OC)c2)C1(C)C (racemic) [Example 17, (trans)-N-[[3-(3-methoxyphenyl)-2,2-dimethyl-1-cyclopropyl]methyl]butanamide]
- IC50 [4]: 250 to 600 nM

Compound: CCCC(=O)NC[C@@H]1C[C@H]1c1ccc(I)c(F)c1 (single isomer, unassigned) [Example 71, (-)-(trans)-N-[[2-(3-Fluoro-4-iodophenyl)cycloprop-1-yl]methyl] butanamide]
- IC50 [1]: 40 to 250 nM

Compound: CCCC(=O)NC[C@@H]1C[C@H]1c1cc(OC)ccc1CCc1ccccc1 (single isomer, unassigned) [Example 9b]
- IC50 [3]: 5 to 40 nM

Compound: CCCC(=O)NC[C@@H]1C[C@H]1c1cc(OC)ccc1-c1ccc(C(F)(F)F)cc1 [Example 34, (-)-(trans)-N-[[2-[4-Methoxy-4'-(trifluoromethyl) [1,1'-biphenyl]-2yl]cycloprop-1-yl]methyl] butanamide]
- IC50 [2]: 5 to 40 nM

Compound: CCCC(=O)NC[C@@H]1C[C@H]1c1cc(OC)ccc1C#N [Example 10, (-)-(trans)-N-[[2-(2-Cyano-5-methoxyphenyl]cyclopropyl]methyl] butanamide]
- IC50 [3]: 5 to 40 nM

The remaining lines, values ahead:

- IC50 [1]: 40 to 250 nM
Compound: CCCC(=O)NC[C@@H]1C[C@H]1c1cccc(OC(C)C)c1 (racemic) [Example 8, (trans)-N-[[2-[3-(Methylethoxy)phenyl]cyclopropyl]methyl] butanamide]

- IC50 [2]: 250 to 600 nM
Compound: COc1cccc([C@@H]2C[C@H]2CNC(=O)C2CCCC2)c1 (single isomer, unassigned) [Example 37]

- IC50 [4]: < 5 nM
Compound: CCCC(=O)NC[C@H]1[C@H](c2cccc(OC)c2)C1(F)F (racemic) [Example 12, (±)-(trans)-[2,2-Difluoro-3-(3-methoxyphenyl)-cyclopropylmethyl] butanamide]

- IC50 [4]: 40 to 250 nM
Compound: CCCC(=O)NC(C)[C@@H]1C[C@H]1c1cccc(OC)c1 (single isomer, unassigned; (-)) [Example 14, (-)-(trans)-N-[1-[2-(3-Methoxyphenyl)cyclopropyl]ethyl] butanamide]

- IC50 [2]: < 5 nM
Compound: CCCC(=O)NC[C@@H]1C[C@H]1c1ccc(Cl)c(OC)c1 (racemic) [Example 27, (trans)-N-[[2-(4-Chloro-3-methoxyphenyl)cyclopropyl]methyl] butanamide]

- IC50 [3]: < 5 nM
Compound: CCCC(=O)NC[C@@H]1C[C@H]1c1cccc(OCC2CC2c2cccc(OC)c2)c1 (mixture of isomers) [Example 132, (trans)-N-[[2-[3-[[2-(3-Methoxyphenyl)cycloprop-1-yl]methoxy]phenyl]cycloprop-1-yl]methyl] butanamide]

- IC50 [2]: 5 to 40 nM
Compound: CCCC(=O)NC[C@@H]1C[C@H]1c1ccc(I)c(OC)c1 [Example 33, (-)-(trans)-N-[[2-(4-Iodo-3-methoxyphenyl)cycloprop-1-yl]methyl] butanamide]

- IC50 [2]: 5 to 40 nM
Compound: COc1cccc([C@@H]2C[C@H]2CNC(=O)CCCCl)c1 (single isomer, unassigned) [Example 35]

- IC50 [3]: 5 to 40 nM
Compound: CCCC(=O)NC[C@@H]1C[C@H]1c1cccc(OCC2C(c3cccc(OC)c3)C2(C)C)c1 (some centres unmarked) [Example 131]

- IC50 [1]: 40 to 250 nM
Compound: CCCC(=O)NC[C@@H]1C[C@H]1c1cccc(O)c1 (single isomer, unassigned) [Example 79]

- IC50 [2]: < 5 nM
Compound: COc1cccc([C@@H]2C[C@H]2CNC(C)=O)c1 [Example 41, (-)-(trans)-N-[[2-(3-Methoxyphenyl)cycloprop-1-yl]methyl] acetamide]

- IC50 [1]: 40 to 250 nM
Compound: CCCC(=O)NC[C@@H]1C[C@H]1c1cc(F)ccc1I (single isomer, unassigned) [Example 70]

- IC50 [3]: 5 to 40 nM
Compound: CCCC(=O)NC[C@@H]1C[C@H]1c1cccc(OC)c1 (single isomer, unassigned) [Example 3a, (+)-(trans)-N-[[2-(3-Methoxyphenyl)cyclopropyl]methyl]butanamide]

- IC50 [3]: < 5 nM
Compound: CCCC(=O)NC[C@@H]1C[C@H]1c1cc(OC)ccc1C#Cc1ccccc1 (single isomer, unassigned) [Example 9a]

- IC50 [2]: < 5 nM
Compound: COc1cccc([C@@H]2C[C@H]2CNC(=O)C2CC2)c1 [Example 36, (-)-(trans)-N-[[2-(3-Methoxyphenyl)cycloprop-1-yl]methyl]cyclopropane carboxamide]

- IC50 [3]: 5 to 40 nM
Compound: CCCC(=O)NC[C@@H]1C[C@H]1c1cc(OC)ccc1-c1ccccc1 [Example 11, (-)-(trans)-N-[[2-(2-Phenyl-5-methoxyphenyl]cyclopropyl]methyl] butanamide]

- IC50 [1]: 40 to 250 nM
Compound: CCCC(=O)NC[C@@H]1C[C@H]1c1cccc(F)c1 (racemic) [Example 44]

- IC50 [3]: 250 to 600 nM
Compound: CCCC(=O)NC[C@@H]1C[C@H]1c1cc(OC)ccc1NC(=O)CCC (relative stereo) [Example 13, (trans)-N-[[2-(2-Butyrylamino-5-methoxyphenyl)cyclopropyl]methyl] butanamide]

- IC50 [1]: 40 to 250 nM
Compound: CCCC(=O)NC[C@@H]1C[C@H]1c1cccc(C(F)(F)C(F)(F)F)c1 (single isomer, unassigned) [Example 89]

- IC50 (read-out: Binding affinity (IC50) at the human melatonin receptor, Table 5: displacement of 2-[125I]-Iodomelatonin, Formula I compounds with R1 and R = H, G = methylene): < 5 nM
Compound: (trans)-N-[2-[(3-Trideuteromethoxyphenyl)cycloprop-1-yl]methyl] butanamide [Example 111]
